Results as given in ChEMBL document CHEMBL1145312, “Structure-activity relationships of triazolopyridine oxazole p38 inhibitors: identification of candidates for clinical development” (Bioorg Med Chem Lett, 2006).
In brackets after ≈: the same amount, converted by molar mass.

Columns and labels:
[1] = Solubility in PBS buffer at ph 6.5; assay type: physicochemical
[2] = Half life in rat; assay type: ADME, organism-based; conditions: in vivo
[3] = Plasma clearance in rat; assay type: ADME, organism-based
[4] = Volume of distribution in monkey; assay type: ADME, organism-based, Macaca mulatta; conditions: rhesus monkey, in vivo; read-out: Vdss
[5] = Plasma clearance in monkey; assay type: ADME, organism-based, Macaca mulatta; conditions: rhesus monkey
[6] = Volume of distribution in rat; assay type: ADME, organism-based; conditions: in vivo, read-out: Vdss
[7] = Bioavailability in rat; assay type: ADME, organism-based; conditions: in vivo
[8] = Dissociation constant, pKa of the compound; assay type: physicochemical
[9] = Bioavailability in monkey; assay type: ADME, organism-based, Macaca mulatta; conditions: rhesus monkey, in vivo
[10] = Half life in monkey; assay type: ADME, organism-based, Macaca mulatta; conditions: rhesus monkey, in vivo
[11] = Distribution coefficient, log D of the compound; assay type: physicochemical; conditions: octanol/water
[12] = test system: Monocyte; assay: Inhibition of LPS-induced TNFalpha production in human monocytes; assay type: functional, cell-based
[13] = organism: Homo sapiens; assay: Inhibition of LPS-induced TNFalpha production in human whole blood; assay type: functional, organism-based
[14] = organism: Rattus norvegicus; assay: Inhibition of LPS-induced TNFalpha release in rat; assay type: functional
[15] = target: Mitogen-activated protein kinase 14 (Homo sapiens, UniProt Q16539); assay: Inhibition of p38alpha
[16] = target: T1, hERG (KCNH2) (Homo sapiens, UniProt Q12809); assay: Inhibition of hERG channel current in HEK293 cells at 3 uM; assay type: toxicity, cell-based; conditions: HEK293 cells that express hERG
[17] = target: T2, MAP kinase-activated protein kinase 5 (Homo sapiens, UniProt Q8IW41); assay: Inhibition of PRAK
T2 sequence (Q8IW41 whole entry): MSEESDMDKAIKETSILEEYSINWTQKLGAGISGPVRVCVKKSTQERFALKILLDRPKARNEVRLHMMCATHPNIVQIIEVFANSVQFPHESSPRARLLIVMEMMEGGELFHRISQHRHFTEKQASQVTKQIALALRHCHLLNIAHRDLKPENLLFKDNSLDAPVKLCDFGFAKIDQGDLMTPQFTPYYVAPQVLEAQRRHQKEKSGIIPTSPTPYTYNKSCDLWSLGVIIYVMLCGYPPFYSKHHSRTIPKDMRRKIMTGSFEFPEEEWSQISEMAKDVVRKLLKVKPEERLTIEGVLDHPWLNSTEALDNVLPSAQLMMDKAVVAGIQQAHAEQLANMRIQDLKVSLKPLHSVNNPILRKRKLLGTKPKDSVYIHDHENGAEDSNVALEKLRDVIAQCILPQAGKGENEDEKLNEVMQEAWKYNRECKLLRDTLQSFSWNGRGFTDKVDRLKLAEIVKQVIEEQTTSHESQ

[18] = Inhibition of PKC
[19] = target: Protein kinase C alpha type (Homo sapiens, UniProt P17252); assay: Inhibition of PKCalpha
[20] = target: MAP kinase-activated protein kinase 2 (Homo sapiens, UniProt P49137); assay: Inhibition of MAPKAP-K2
[21] = Inhibition of phosphorylase kinase
[22] = target: Tyrosine-protein kinase CSK (Homo sapiens, UniProt P41240); assay: Inhibition of CSK
[23] = target: RAC-alpha serine/threonine-protein kinase (Homo sapiens, UniProt P31749); assay: Inhibition of PKBalpha
[24] = target: T3, Serine/threonine-protein kinase Sgk1 (Homo sapiens, UniProt O00141); assay: Inhibition of SGK
T3 sequence (O00141 whole entry): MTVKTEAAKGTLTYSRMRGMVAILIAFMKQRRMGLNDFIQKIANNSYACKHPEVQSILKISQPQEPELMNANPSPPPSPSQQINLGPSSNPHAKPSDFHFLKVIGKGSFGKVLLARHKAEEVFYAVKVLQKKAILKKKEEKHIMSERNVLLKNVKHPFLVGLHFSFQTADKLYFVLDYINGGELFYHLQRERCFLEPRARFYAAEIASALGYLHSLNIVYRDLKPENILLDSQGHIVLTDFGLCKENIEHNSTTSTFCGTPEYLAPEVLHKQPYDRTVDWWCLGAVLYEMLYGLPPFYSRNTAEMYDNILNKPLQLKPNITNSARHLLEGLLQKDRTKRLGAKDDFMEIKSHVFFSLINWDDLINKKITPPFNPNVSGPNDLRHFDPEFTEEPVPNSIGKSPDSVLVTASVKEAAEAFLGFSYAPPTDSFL

[25] = target: Ribosomal protein S6 kinase alpha-1 (Homo sapiens, UniProt Q15418); assay: Inhibition of MAPKAP-K1a
[26] = target: Ribosomal protein S6 kinase (P70S6K) (Homo sapiens, UniProt P23443+Q9UBS0); assay: Inhibition of P70S6K; assay type: protein-complex assay
[27] = target: Rho-associated protein kinase 2 (Homo sapiens, UniProt O75116); assay: Inhibition of ROCK2
[28] = target: T4, Serine/threonine-protein kinase Chk1 (Homo sapiens, UniProt O14757); assay: Inhibition of CHK1
T4 sequence (O14757 whole entry): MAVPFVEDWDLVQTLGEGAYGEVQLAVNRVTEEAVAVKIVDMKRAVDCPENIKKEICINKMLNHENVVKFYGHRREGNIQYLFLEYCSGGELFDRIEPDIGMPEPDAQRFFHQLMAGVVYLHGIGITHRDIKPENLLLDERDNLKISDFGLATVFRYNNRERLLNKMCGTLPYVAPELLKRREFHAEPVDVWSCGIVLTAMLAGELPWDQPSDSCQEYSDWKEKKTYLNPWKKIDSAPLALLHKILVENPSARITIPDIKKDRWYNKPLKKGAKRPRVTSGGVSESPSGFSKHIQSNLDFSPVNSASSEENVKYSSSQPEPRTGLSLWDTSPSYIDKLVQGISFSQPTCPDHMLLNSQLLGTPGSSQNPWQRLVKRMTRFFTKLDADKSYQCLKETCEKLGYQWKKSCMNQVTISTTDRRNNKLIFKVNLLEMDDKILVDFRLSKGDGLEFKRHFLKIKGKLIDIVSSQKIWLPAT

[29] = target: Ribosomal protein S6 kinase alpha-5 (Homo sapiens, UniProt O75582); assay: Inhibition of MSK1
[30] = target: Dual specificity mitogen-activated protein kinase kinase 1 (Homo sapiens, UniProt Q02750); assay: Inhibition of MKK1
[31] = target: AMP-activated protein kinase, AMPK; assay: Inhibition of AMPK; assay type: protein-complex assay
[32] = Inhibition of PI3K
[33] = target: Dual specificity tyrosine-phosphorylation-regulated kinase 1A (Homo sapiens, UniProt Q13627); assay: Inhibition of DYRK1a
[34] = target: c-Jun N-terminal kinase, JNK (Homo sapiens, UniProt P45983+P53779+P45984); assay: Inhibition of JNK; assay type: protein assay
[35] = target: Cyclin-dependent kinase 2 (Homo sapiens, UniProt P24941); assay: Inhibition of CDK2
[36] = target: Glycogen synthase kinase-3 beta (Homo sapiens, UniProt P49841); assay: Inhibition of GSK3-beta
[37] = target: T5, 3-phosphoinositide-dependent protein kinase 1 (Homo sapiens, UniProt O15530); assay: Inhibition of PDK1
T5 sequence (O15530 whole entry): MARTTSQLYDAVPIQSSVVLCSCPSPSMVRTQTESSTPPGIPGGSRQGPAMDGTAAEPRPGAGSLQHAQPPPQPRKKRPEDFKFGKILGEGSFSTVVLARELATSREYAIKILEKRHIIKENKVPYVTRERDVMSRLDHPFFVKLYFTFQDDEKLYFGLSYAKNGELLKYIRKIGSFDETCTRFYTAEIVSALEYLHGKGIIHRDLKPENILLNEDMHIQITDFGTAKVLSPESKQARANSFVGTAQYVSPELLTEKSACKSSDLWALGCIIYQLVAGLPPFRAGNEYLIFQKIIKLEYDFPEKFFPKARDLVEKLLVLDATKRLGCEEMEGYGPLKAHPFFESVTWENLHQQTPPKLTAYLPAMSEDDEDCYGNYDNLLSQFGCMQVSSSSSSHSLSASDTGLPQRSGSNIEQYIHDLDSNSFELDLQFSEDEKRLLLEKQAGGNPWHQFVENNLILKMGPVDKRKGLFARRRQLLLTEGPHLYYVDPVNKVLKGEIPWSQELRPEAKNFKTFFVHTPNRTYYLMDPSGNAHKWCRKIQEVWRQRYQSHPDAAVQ

[38] = target: Mitogen-activated protein kinase 1 (Homo sapiens, UniProt P28482); assay: Inhibition of ERK2
[39] = target: Casein kinase II (Homo sapiens, UniProt P19784+P67870+P68400); assay: Inhibition of CK2; assay type: protein-complex assay
[40] = target: T6, Mitogen-activated protein kinase 12 (Homo sapiens, UniProt P53778); assay: Inhibition of p38-gamma
T6 sequence (P53778 whole entry): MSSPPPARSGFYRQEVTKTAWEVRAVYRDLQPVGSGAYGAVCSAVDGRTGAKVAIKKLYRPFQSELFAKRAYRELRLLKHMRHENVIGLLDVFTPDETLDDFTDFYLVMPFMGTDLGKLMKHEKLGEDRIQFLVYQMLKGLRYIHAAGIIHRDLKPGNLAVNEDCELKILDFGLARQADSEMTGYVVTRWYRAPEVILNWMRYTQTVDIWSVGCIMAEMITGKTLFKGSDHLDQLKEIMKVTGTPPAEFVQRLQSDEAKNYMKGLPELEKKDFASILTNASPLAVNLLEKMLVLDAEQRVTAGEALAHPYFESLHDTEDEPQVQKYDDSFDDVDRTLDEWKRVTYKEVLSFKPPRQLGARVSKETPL

[41] = test system: Rattus norvegicus; assay: Inhibition of LPS-induced TNFalpha release in rat at 3 mg/kg; assay type: functional
[42] = target: Tyrosine-protein kinase Lck (Homo sapiens, UniProt P06239); assay: Inhibition of Lck
[43] = target: T1, hERG (KCNH2); assay: Inhibition of hERG channel current in HEK293 cells at 1 uM; assay type: toxicity, cell-based; conditions: HEK293 cells that express hERG
[44] = Permeability from apical to basolateral side of Caco-2 cell membrane; assay type: ADME, cell-based; conditions: human
[45] = Permeability from basolateral to apical side of Caco-2 cell membrane; assay type: ADME, cell-based; conditions: human

Sequence of Mitogen-activated protein kinase 14 (Q16539 whole entry): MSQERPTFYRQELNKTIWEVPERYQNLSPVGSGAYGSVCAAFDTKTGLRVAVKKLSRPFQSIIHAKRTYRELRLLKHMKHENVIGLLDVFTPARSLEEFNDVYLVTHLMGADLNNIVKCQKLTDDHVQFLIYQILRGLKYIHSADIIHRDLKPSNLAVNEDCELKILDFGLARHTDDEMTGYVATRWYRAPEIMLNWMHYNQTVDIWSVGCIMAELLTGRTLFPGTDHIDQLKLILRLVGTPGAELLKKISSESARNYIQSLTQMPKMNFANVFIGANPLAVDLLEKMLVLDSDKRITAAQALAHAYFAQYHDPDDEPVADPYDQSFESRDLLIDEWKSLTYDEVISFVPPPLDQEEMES
T1 sequence (Q12809 whole entry): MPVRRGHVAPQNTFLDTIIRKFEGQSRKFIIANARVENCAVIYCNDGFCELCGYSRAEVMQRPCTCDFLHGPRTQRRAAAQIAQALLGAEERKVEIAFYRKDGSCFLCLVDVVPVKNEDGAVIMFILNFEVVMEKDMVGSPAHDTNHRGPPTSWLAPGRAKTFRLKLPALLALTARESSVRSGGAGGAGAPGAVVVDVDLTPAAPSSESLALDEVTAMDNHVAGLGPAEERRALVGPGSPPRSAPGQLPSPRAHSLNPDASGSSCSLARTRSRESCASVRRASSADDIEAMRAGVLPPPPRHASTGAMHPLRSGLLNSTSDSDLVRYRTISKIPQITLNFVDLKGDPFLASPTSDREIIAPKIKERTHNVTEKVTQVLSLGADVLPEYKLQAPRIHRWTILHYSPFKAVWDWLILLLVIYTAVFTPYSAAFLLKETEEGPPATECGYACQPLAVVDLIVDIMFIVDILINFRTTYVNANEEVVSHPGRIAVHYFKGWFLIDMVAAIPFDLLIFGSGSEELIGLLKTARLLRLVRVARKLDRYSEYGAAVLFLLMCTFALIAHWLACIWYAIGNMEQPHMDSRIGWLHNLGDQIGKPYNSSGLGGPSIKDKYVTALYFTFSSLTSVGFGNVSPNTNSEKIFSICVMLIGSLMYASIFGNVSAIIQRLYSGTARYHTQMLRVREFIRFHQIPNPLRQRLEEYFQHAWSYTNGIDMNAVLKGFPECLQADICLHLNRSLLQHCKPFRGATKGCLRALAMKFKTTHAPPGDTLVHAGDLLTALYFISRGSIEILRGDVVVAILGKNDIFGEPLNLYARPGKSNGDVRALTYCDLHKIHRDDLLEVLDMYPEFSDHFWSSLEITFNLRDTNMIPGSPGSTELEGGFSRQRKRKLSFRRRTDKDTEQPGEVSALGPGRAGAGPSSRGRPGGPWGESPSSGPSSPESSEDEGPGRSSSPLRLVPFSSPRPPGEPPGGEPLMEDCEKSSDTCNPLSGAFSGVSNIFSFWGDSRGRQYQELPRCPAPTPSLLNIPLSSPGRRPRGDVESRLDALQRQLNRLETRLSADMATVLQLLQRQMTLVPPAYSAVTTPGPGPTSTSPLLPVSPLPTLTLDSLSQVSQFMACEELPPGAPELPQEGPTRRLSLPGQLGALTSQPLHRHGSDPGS
Sequence of Tyrosine-protein kinase CSK (P41240 whole entry): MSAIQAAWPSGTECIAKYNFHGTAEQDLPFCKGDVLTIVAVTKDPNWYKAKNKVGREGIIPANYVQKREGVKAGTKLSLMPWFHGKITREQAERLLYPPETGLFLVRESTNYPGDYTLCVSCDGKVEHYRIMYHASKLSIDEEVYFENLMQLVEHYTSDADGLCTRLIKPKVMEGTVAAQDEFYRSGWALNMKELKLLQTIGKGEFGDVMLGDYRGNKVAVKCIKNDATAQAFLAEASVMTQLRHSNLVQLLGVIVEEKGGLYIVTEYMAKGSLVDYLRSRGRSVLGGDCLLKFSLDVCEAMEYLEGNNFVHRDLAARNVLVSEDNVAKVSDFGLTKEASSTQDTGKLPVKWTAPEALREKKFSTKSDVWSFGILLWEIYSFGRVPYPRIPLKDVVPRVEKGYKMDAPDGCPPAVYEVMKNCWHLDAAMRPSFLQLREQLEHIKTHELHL
Sequence of Ribosomal protein S6 kinase alpha-5 (O75582 whole entry): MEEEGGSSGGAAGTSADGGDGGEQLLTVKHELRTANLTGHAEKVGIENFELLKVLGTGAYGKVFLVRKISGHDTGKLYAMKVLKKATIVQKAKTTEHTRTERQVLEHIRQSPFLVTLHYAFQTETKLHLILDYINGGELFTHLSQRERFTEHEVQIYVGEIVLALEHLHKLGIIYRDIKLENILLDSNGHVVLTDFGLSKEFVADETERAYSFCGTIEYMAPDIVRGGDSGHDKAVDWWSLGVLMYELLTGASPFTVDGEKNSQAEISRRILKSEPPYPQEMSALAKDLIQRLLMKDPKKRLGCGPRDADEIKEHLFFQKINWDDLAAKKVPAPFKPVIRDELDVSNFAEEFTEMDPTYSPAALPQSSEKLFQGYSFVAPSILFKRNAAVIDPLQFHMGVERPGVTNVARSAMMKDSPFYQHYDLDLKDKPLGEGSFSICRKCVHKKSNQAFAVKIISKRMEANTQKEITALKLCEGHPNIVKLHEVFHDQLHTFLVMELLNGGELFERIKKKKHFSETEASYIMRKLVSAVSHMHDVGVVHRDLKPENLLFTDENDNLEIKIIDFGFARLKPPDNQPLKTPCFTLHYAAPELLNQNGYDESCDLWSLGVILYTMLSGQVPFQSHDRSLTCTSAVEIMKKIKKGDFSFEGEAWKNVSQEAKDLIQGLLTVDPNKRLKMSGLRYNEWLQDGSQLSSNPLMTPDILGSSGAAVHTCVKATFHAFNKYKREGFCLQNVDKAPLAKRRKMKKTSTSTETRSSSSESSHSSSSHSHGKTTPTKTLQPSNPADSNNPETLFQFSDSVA
Sequence of Mitogen-activated protein kinase 1 (P28482 whole entry): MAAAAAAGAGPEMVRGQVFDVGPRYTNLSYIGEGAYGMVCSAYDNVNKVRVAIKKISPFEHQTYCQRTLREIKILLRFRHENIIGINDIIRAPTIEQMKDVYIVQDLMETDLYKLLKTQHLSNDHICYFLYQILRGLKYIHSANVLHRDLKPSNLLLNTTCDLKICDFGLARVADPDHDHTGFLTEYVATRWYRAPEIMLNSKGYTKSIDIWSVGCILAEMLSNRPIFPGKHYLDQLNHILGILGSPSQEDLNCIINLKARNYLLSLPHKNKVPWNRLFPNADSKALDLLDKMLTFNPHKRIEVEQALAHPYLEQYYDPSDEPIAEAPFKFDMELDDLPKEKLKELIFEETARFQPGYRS
Sequence of Rho-associated protein kinase 2 (O75116 whole entry): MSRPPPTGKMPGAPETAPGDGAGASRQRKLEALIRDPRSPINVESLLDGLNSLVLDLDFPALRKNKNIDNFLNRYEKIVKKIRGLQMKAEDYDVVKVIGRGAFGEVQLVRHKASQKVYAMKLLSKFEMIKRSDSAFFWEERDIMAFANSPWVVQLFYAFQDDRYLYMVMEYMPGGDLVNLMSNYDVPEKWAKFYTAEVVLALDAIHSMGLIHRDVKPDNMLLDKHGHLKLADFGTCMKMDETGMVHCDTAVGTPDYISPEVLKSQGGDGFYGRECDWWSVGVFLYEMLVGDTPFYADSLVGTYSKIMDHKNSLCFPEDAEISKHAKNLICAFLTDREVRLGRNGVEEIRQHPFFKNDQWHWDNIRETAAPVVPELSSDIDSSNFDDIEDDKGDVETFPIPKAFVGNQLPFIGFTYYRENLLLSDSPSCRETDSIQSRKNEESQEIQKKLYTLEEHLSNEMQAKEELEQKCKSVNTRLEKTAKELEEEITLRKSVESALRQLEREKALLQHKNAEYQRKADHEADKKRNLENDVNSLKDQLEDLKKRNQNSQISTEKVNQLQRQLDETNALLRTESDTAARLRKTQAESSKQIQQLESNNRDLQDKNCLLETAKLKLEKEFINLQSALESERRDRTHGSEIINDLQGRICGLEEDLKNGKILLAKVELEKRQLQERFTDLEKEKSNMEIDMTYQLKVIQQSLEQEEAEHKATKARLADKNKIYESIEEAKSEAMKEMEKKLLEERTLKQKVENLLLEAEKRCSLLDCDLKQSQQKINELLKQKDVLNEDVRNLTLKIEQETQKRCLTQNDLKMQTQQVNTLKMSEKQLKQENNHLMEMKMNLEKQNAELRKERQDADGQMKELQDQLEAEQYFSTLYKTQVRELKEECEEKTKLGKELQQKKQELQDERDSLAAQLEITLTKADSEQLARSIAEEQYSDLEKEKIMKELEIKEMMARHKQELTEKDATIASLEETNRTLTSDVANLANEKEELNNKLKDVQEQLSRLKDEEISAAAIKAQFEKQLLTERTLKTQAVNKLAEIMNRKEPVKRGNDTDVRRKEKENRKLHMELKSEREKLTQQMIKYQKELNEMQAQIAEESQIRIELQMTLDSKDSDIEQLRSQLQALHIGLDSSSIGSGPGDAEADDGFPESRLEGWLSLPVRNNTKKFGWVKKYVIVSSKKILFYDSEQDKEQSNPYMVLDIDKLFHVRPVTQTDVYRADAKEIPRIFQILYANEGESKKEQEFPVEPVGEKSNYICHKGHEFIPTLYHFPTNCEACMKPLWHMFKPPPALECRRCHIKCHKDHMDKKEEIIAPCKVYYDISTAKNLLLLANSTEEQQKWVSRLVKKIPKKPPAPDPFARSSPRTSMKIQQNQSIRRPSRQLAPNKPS
Sequence of Glycogen synthase kinase-3 beta (P49841 whole entry): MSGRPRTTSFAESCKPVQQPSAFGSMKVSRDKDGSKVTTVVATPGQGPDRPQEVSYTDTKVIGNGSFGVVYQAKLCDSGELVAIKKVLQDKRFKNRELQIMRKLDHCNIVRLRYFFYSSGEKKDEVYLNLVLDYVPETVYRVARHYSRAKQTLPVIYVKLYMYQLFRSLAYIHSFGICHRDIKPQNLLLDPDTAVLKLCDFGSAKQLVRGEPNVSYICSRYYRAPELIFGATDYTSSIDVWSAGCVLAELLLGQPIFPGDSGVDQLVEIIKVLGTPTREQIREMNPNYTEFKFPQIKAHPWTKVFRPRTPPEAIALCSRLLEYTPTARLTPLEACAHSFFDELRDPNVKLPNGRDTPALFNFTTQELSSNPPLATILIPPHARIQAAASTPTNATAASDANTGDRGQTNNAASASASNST

Compound | solubility [1] [µg/mL] | half-life [2] [h] | clearance [3] [mL/min/kg] | Vd [4] [L/kg] | clearance [5] [mL/min/kg] | Vd [6] [L/kg] | bioavailability [7] [%] | bioavailability [9] [%] | half-life [10] [h] | IC50 [12] [µM] | IC50 [13] [µM] | ED50 [14] [mg/kg] | IC50 [15] [µM] | inhibition at 3 µM [16] [%] | IC50 [17] [µM] | IC50 [18] [µM] | IC50 [19] [µM] | IC50 [20] [µM] | IC50 [21] [µM] | IC50 [22] [µM] | further results
CC(C)c1nnc2ccc(-c3ocnc3-c3ccc(F)cc3)cn12 | 29.6 (≈ 91.8 µM) | 0.7 | 12 | 1.8 | 16 | 0.8 | 85 | 75 | 1.3 |  |  |  |  |  |  |  |  |  |  |  | pKa [8]: 2.86; logD [11]: 2.18
CC(C)c1nnc2ccc(-c3ocnc3-c3cccc(Cl)c3)cn12 | 5.2 (≈ 15.3 µM) | 1.6 | 17 | 1 | 15 | 1 | 37 | 19 | 1.1 | 0.0523 | 0.55 | 2.4 | 0.0135 | 14 |  |  |  |  |  |  | 
CC(C)c1nnc2ccc(-c3ocnc3-c3cc(F)c(F)cc3F)cn12 |  |  |  |  |  |  |  |  |  | 0.0197 | 0.263 |  | 0.0032 |  | > 10 | > 10 | > 10 | > 10 | > 10 | > 10 | IC50 [23]: > 10 µM; IC50 [24]: > 10 µM; IC50 [25]: > 10 µM; IC50 [26]: > 10 µM; IC50 [27]: > 10 µM; IC50 [28]: > 10 µM; IC50 [29]: > 10 µM; IC50 [30]: > 10 µM; IC50 [31]: > 10 µM; IC50 [32]: > 10 µM; IC50 [33]: > 10 µM; IC50 [34]: > 10 µM; IC50 [35]: > 10 µM; IC50 [36]: > 10 µM; IC50 [37]: > 10 µM; IC50 [38]: > 10 µM; IC50 [39]: > 10 µM
CC(C)c1nnc2ccc(-c3ocnc3-c3ccc(F)cc3Cl)cn12 | 81 (≈ 227 µM) |  |  |  |  |  |  |  |  | 0.0245 | 0.38 |  | 0.0025 | 0 | > 10 | > 10 | > 10 | > 10 | > 10 | > 10 | IC50 [40]: > 10 µM; IC50 [23]: > 10 µM; IC50 [24]: > 10 µM; IC50 [25]: > 10 µM; IC50 [26]: > 10 µM; IC50 [27]: > 10 µM; IC50 [28]: > 10 µM; IC50 [29]: > 10 µM; IC50 [30]: > 10 µM; IC50 [31]: > 10 µM; IC50 [32]: > 10 µM; IC50 [33]: > 10 µM; inhibition in vivo at 3 mg/kg [41]: 94%; IC50 [34]: > 10 µM; IC50 [35]: > 10 µM; IC50 [42]: > 10 µM; IC50 [36]: > 10 µM; IC50 [38]: > 10 µM; IC50 [39]: > 10 µM
CC(C)c1nnc2ccc(-c3ocnc3-c3cc(F)ccc3F)cn12 | 8.1 (≈ 23.8 µM) |  |  | 1.3 |  | 0.8 | 58 | 40 |  | 0.025 | 0.259 | 0.3 | 0.0058 |  |  |  |  |  |  |  | inhibition at 1 µM [43]: 0%; Papp A→B [44]: 43 ×10⁻⁶ cm/s; Papp B→A [45]: 29 ×10⁻⁶ cm/s
